Source: PubChem BioAssay AID720588 (Broad Institute, 2013)
Activity calls are given as the source filed them.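 Rule for the calls: active = fitted curve falls past a set limit of signal loss at no more than twice the top dose; inconclusive = flat fit between 30 and 70% signal loss, or poor fit; inactive = signal rise, flat within 30%, or crossing too high.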

assay: HEK293T cell cytotoxicity, dose response, cytotoxicity control, CellTiter-Glo luminescence, cherry-pick, set 3 (AID 720588); conditions: HEK293T viability, CellTiter-Glo ATP luminescence, 72 h; at 23.5 µM (top of the series)

| Structure (SMILES) | activity change, negative = cytotoxicity |
| --- | --- |
| COc1ccccc1NC(=O)N1[C@@H]2CNC[C@H]1[C@@H]2c1ccc(-c2ccc(C#N)cc2)cc1 | -30.3% (inactive) |
| COC(=O)C[C@@H]1CC[C@@H]2[C@H](COc3ccc(NC(=O)c4cccc(F)c4)cc3C(=O)N2C)O1 | -28.5% (inactive) |
| COC(=O)C[C@@H]1CC[C@@H]2[C@@H](COc3ccc(NC(=O)Nc4cccc(Cl)c4)cc3C(=O)N2C)O1 | 4.77% (inactive) |

same assay, conditions: HEK293T viability, CellTiter-Glo ATP luminescence, 72 h; at 26 µM (top of the series)

| Structure (SMILES) | activity change, negative = cytotoxicity |
| --- | --- |
| O=C(Nc1cccc(S(=O)(=O)N2CCCC2)c1)c1ccc(Cl)nc1 | -35.5% (inactive) |
| C[C@@H]1CN([C@@H](C)CO)C(=O)Cc2cc(NS(=O)(=O)c3cccs3)ccc2O[C@H]1CN(C)Cc1ccc(Cl)c(Cl)c1 | -34.4% (inactive) |
| CN(C)[C@@H]1CCC[C@@H]1OC(=O)C(c1ccccc1)c1ccccc1 | -11.6% (inactive) |
| Cc1ccccc1N=Nc1c(O)n(C)c2ccccc12 | 2.96% (inactive) |
| O=C(CCCCl)Nc1nc(-c2ccc3c(c2)OCCO3)cs1 | 13.6% (inactive) |
| COCCOC(=O)N1C(=O)[C@@]2(c3cc(C#CCC(C(=O)OC)C(=O)OC)ccc31)[C@H](c1ccccc1OCCO)N1[C@H](c3ccccc3)[C@H](c3ccccc3)OC(=O)[C@H]1[C@@H]2C(=O)N1CCN(c2ncccn2)CC1 | 28.9% (inactive) |
| CCCN1C(=O)/C(=C/c2nc3ccccc3c(=O)[nH]2)c2ccccc21 | -9.06% (inactive) |
| Cc1csc(NC(=O)CCc2c(C)nc3cc(-c4ccc(Cl)cc4)nn3c2C)n1 | -13.4% (inactive) |
| OCCN1CCN(C(=S)c2ccc(-c3ccccc3)cc2)CC1 | -3.37% (inactive) |
| Cc1c(-c2nc(-c3ccc(C(C)(C)C)cc3)no2)n(C)oc1=O | -15.2% (inactive) |
| C[C@H](CO)N1C[C@H](C)[C@H](CN(C)Cc2ccc(C(=O)Nc3ccccc3N)cc2)Oc2ccc(N(C)C)cc2C1=O | -25.7% (inactive) |
| Cc1ccc2c(c1)C(=O)N1[C@H]3c4cc(Br)ccc4OC[C@@H]3[C@H](c3ccccc3)[C@]1(C)C(=O)N2 | -13.8% (inactive) |
| COc1ccc(NC(=O)N(C)[C@H]2C[C@H]3c4[nH]c5ccccc5c4CCN3C(=O)[C@H]2CO)cc1 | -20.7% (inactive) |
| O=C1CCC2S/C(=C/Nc3ccc(C(F)(F)F)cc3)C(=O)N12 (centres undefined) | -9.48% (inactive) |
| COc1ccccc1NS(=O)(=O)c1cc(NC(=O)c2cc3ccccc3oc2=O)ccc1C | -6.46% (inactive) |
| CCOc1ccc(-c2noc(CCC(=O)O)n2)cc1 | -18.9% (inactive) |
| Cc1c(N=Cc2cc(Br)cc(Br)c2O)cccc1C(=O)O | 6.56% (inactive) |
| N#C[C@H]1[C@H](c2ccc(-c3ccccc3F)cc2)[C@@H](CO)N1C(=O)Cc1ccccc1 | -28.3% (inactive) |
| Cc1cc(C)cc(C(=O)NC(=S)Nc2ccc(Cc3ccncc3)cc2)c1 | -25.9% (inactive) |
| COc1ccc2nc(-c3ccc(F)cc3)sc2c1 | -5.49% (inactive) |
| C[C@@H]1CCCCO[C@@H](CN(C)C(=O)Cc2ccccc2)[C@@H](C)CN([C@@H](C)CO)C(=O)c2cc(NS(=O)(=O)c3ccc(F)cc3)ccc2O1 | 4.58% (inactive) |
| O=C(O)c1ccccc1C(=O)Nc1ccc(Oc2cccc3ccccc23)cc1 | -24.2% (inactive) |
| Cc1c(Cl)cnc(NC(=O)COC(=O)c2ccc3ncsc3c2)c1Cl | 13.6% (inactive) |
| COc1cc2c(cc1NC(=O)CN(C)Cc1ccc(OC)c(OC)c1)oc1ccccc12 | -19.9% (inactive) |

| Structure (SMILES) | activity change, negative = cytotoxicity |
| --- | --- |
| O=C(Cc1nn[nH]n1)c1ccccc1O | 1.92% (inactive) |
| N#CC1C=Cc2c(ccc3ccccc23)N1C(=O)c1ccccc1 (centres undefined) | -20.1% (inactive) |
| COc1cc(OC)cc(-c2cc3nc(C)c(CCC(=O)NCc4ccccc4)c(C)n3n2)c1 | -4.7% (inactive) |
| O=C1C(=O)N(CCS(=O)(=O)c2ccccc2)c2ccccc21 | 17.1% (inactive) |
| C[C@@H]1CN([C@@H](C)CO)S(=O)(=O)c2ccc(C#CCN(C)C)cc2O[C@@H]1CN(C)Cc1ccncc1 | 52.2% (inactive) |
| Cc1[nH][nH]c(=O)c1C(c1c(C)[nH][nH]c1=O)c1cn(Cc2ccc(Cl)c(Cl)c2)c2ccccc12 | -16% (inactive) |
| COc1ccc2oc(-c3ccccc3)cc(=O)c2c1 | -22.5% (inactive) |
| COc1ccc(/C=C2\SC(=O)N(CCCC(=O)Nc3cc(Cl)ccc3C(=O)O)C2=O)cc1 | -2.58% (inactive) |
| CCCNC(=O)N1[C@H](C#N)[C@H](c2ccc(C#Cc3ccc(F)cc3)cc2)[C@H]1CO | 14.3% (inactive) |
| Cc1ccc(/C=C/C(=O)N2CCN(S(=O)(=O)c3c(C)c(C)cc(C)c3C)CC2)o1 | 16.1% (inactive) |
| O=C(CN1C(=O)C(=O)c2ccccc21)c1ccc(Cl)cc1 | -23.4% (inactive) |
| O=c1cc(CN2CCN(Cc3ccccc3)CC2)c2ccc(O)c(O)c2o1 | 28.6% (inactive) |
| CCOC(=O)C1CCCCN1C(=O)CCc1c(C)nc2cc(-c3ccccc3)nn2c1C (centres undefined) | -10.8% (inactive) |
| C[C@H](CO)N1C[C@H](C)[C@@H](CN(C)Cc2ccc(Oc3ccccc3)cc2)Oc2ccc(NS(=O)(=O)c3ccc(Cl)cc3)cc2CC1=O | -17.7% (inactive) |
| Cc1c(Cl)cccc1NC(=O)CCC(=O)N/N=C/c1ccc[nH]1 | 12% (inactive) |
| COc1cc(/C=N/NC(=O)c2csc3c2CCCC3)cc(OC)c1O | 0.867% (inactive) |
| CN(C)c1ccc(N=Nc2ccc(C(=O)O)cc2)cc1 | -1.83% (inactive) |
| CC1(CCc2ccccc2)NC(=O)N(CC(=O)N2CC(=O)Nc3ccccc32)C1=O (centres undefined) | -7.05% (inactive) |
| CN1C(=O)c2cc(NC(=O)c3ccc(C(F)(F)F)cc3)ccc2OC[C@@H]2O[C@@H](CC(=O)NC3Cc4ccccc4C3)CC[C@H]21 | -32.5% (inactive) |
| C[C@H]1CN([C@@H](C)CO)C(=O)c2cc(NS(=O)(=O)c3ccc(Cl)cc3)ccc2O[C@H]1CN(C)Cc1ccc(C(=O)Nc2ccccc2N)cc1 | -0.354% (inactive) |
| C[C@@H]1CN([C@@H](C)CO)C(=O)c2cccc(NS(=O)(=O)c3ccc(F)cc3)c2O[C@@H]1CN(C)Cc1ccc(C(=O)Nc2ccccc2N)cc1 | -33.3% (inactive) |
| COC(=O)C[C@@H]1CC[C@@H]2[C@H](COc3ccc(NC(=O)Nc4cccc(C#N)c4)cc3C(=O)N2C)O1 | 53.6% (inactive) |
| O=c1c2ccccc2oc2cc(C#CC3(O)CCCCC3)ccc12 | 15.7% (inactive) |
| COC(=O)C[C@H]1CC[C@H]2[C@@H](COc3ccc(NC(=O)Nc4cccc(Cl)c4)cc3C(=O)N2C)O1 | -24.3% (inactive) |

| Structure (SMILES) | activity change, negative = cytotoxicity |
| --- | --- |
| COc1cc(-c2noc(C)c2C#Cc2nccn2C)cc(OC)c1OC | -11% (inactive) |
| CC(C)(C)c1ccc(Oc2ccc(NC(=O)C3CC=CCC3C(=O)O)cc2)cc1 (centres undefined) | -16.1% (inactive) |
| COc1ccc(CCCNC(=O)C2Cc3c(-c4ccc5c(c4)OCO5)ccnc3O2)cc1 (centres undefined) | -7% (inactive) |
| CCNC(=O)c1cccc(S(=O)(=O)N2CCCCCC2)c1 | -6.96% (inactive) |
| COC(=O)C[C@@H]1CC[C@@H]2[C@H](COc3ccc(NC(=O)c4ccc(F)c(F)c4)cc3C(=O)N2C)O1 | 16.7% (inactive) |
| N#CC1=C(N)Oc2cc(N)ccc2C1c1cccc(Br)c1 (centres undefined) | -22.2% (inactive) |
| CCCn1nnc(NC(=S)NC(=O)C(C)(C)C)n1 | -9.98% (inactive) |
| C[C@@H]1CN([C@@H](C)CO)S(=O)(=O)c2ccc(C#Cc3ccncc3)cc2O[C@H]1CN(C)C(=O)C1CCOCC1 | 19.2% (inactive) |
| COc1ccc(/C=C2\SC(=S)N(CCCC(=O)Nc3ccc(O)cc3)C2=O)cc1 | -27.6% (inactive) |
| N#C[C@@H]1[C@H](c2ccc(C#Cc3cccc(F)c3)cc2)[C@@H](CO)N1C(=O)C1CCCC1 | 38% (inactive) |
| O=C(Nc1nc(-c2ccc(F)c(F)c2)cs1)c1ccc(OCC2CCCO2)cc1 (centres undefined) | -9.94% (inactive) |
| CC(C)Oc1ccc(Br)cc1C(=O)N/N=C/c1c[nH]c2ccccc12 | -16.4% (inactive) |
| CC(=O)c1ccc(N(C(=O)Cn2nnc3ccccc32)C(C(=O)NCc2ccccc2)c2ccccn2)cc1 (centres undefined) | -21.8% (inactive) |
| O=C(N/N=C/c1ccc[nH]1)c1cc(-c2ccc(Cl)cc2)nc2ccccc12 | -26.6% (inactive) |
| COC(=O)C[C@H]1CC[C@H]2[C@H](COc3ccc(NC(=O)Nc4cccc(Cl)c4)cc3C(=O)N2C)O1 | -28.3% (inactive) |
| COc1ccc(C(=O)OCC(=O)Nc2ccc(Cl)c(C(F)(F)F)c2)c(OC)c1OC | 6.28% (inactive) |
| O=C(C[C@@H]1C[C@H]2c3cc(NC(=O)CC4CC4)ccc3O[C@H]2[C@H](CO)O1)NCc1ccccc1F | 13.3% (inactive) |
| C(=Cc1c[nH]c2ccccc12)c1ccc2ccccc2n1 | -26.3% (inactive) |
| C[C@H](CO)N1C[C@H](C)[C@H](CN(C)CC2CCCCC2)Oc2ccc(NC(=O)Nc3cccc4ccccc34)cc2C1=O | -16.8% (inactive) |
| COc1cc2oc3cc(C#Cc4ccc(N)cc4)ccc3c(=O)c2cc1OC | -4.88% (inactive) |
| C[C@@H]1CN([C@H](C)CO)C(=O)c2cc(NC(=O)CCCCCC(=O)Nc3ccccc3N)ccc2O[C@H]1CN(C)S(=O)(=O)c1ccc(Cl)cc1 | -21.5% (inactive) |
| COc1ccc(C(C)(O)c2nc(-c3cccc(F)c3)cs2)cc1 (centres undefined) | -24.1% (inactive) |
| CCc1ccc(/C=C2\SC(=S)N(CCCC(=O)NCCCN3CCOCC3)C2=O)cc1 | -13.1% (inactive) |
